The results in this text go back to patent US10857102B2, “Therapeutic compositions comprising rilpivirine HCL and tenofovir disoproxil fumarate” (priority 2010, dated 2020).

Molecules are shown by their SMILES.

The data set is described as follows: Rilpivirine dissolution rate (laboratory data, FIG. 9). In kind it is physicochemical. The source says: Formulation 3 and Formulation 4 differ in the weight of extragranular excipients and in the amount of croscarmellose sodium present. […] It may be postulated that the higher amounts of diluents in the rilpivirine layer of Formulation 3 that was bioequivalent to the rilpivirine single agent reference tablet could have served to lessen the extent of contact and interactions between rilpivirine and emtricitabine and/or tenofovir DF and achieve bioequivalence.
In addition, the higher amount of croscarmellose sodium, a superdisintegrant, leads to faster layer disintegration and separation of the rilpivirine layer from the emtricitabine/tenofovir DF layer minimizing any potential interactions between rilpivirine with emtricitabine and/or tenofovir DF. […] This is possibly due to the basifying nature of this excipient.

Take `Cc1cc(/C=C/C#N)cc(C)c1Nc1ccnc(Nc2ccc(C#N)cc2)n1.Cl` [rilpivirine, Rilpivirine HCl]: the rilpivirine dissolution rate result (higher concentrations of croscarmellose sodium in the rilpivirine layer, FIG. 9) is listed as “decreased”. Besides, the “intrinsic dissolution rate of rilpivirine” value (in the presence of emtricitabine and/or tenofovir DF) is “increased”.
